According to article PMC6273769, “Screening of Potential Xanthine Oxidase Inhibitors in Gnaphalium hypoleucum DC. by Immobilized Metal Affinity Chromatography and Ultrafiltration-Ultra Performance Liquid Chromatography-Mass Spectrometry” (Molecules, 2016):
Where two headings read alike, the source gives them in different places.

How the values were obtained:
[1] = biological target: T1, xanthine oxidase (Bos taurus, UniProt P80457); assay: XO activity assay (uric acid absorbance at […] nm) with Lineweaver-Burk kinetics (Ki […]); also retained by XO in ultrafiltration UPLC-MS; type: biochemical
T1 construct: gene XDH

[2] = biological target: T1, xanthine oxidase; assay: as above; type: biochemical; remark: listed apart in the source

T1 sequence (P80457 2-1332): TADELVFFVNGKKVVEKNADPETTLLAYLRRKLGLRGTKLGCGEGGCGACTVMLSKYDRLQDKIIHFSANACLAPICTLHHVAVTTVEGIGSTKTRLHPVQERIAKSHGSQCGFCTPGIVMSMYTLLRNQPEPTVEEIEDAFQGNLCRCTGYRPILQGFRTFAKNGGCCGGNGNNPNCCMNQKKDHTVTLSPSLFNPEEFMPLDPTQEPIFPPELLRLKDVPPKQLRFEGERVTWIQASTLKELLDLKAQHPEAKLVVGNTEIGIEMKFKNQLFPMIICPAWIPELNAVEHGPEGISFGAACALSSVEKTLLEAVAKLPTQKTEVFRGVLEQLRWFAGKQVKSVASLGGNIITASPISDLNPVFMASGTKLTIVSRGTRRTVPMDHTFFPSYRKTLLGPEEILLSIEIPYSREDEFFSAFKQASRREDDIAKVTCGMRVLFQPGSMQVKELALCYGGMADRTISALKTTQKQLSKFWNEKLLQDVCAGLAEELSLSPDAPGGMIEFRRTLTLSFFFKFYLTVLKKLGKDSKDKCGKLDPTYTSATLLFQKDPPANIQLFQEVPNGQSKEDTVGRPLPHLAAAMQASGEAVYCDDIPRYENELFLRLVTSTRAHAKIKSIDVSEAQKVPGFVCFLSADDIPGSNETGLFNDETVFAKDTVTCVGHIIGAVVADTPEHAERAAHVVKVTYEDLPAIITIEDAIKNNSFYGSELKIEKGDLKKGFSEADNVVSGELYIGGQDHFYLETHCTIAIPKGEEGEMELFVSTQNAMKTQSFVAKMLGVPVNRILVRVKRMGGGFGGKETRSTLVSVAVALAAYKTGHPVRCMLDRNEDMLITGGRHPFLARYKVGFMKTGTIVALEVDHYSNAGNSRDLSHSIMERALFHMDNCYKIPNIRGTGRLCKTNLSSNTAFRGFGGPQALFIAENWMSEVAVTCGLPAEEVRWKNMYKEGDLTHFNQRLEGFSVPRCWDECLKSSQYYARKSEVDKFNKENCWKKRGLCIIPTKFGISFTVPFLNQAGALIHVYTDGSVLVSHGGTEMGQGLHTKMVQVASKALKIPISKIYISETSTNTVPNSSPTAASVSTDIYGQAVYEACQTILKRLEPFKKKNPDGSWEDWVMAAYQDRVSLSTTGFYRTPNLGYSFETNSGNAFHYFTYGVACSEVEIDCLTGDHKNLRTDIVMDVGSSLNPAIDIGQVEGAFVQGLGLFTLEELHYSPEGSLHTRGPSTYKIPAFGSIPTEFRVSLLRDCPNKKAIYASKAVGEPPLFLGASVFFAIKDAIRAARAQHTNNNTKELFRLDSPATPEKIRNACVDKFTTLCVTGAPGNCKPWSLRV

Row | IC50 [1] | IC50 [2] | Structure (SMILES)
1 | 580 nM | – | O=c1cc(-c2ccc(O[C@@H]3O[C@H](CO)[C@@H](O)[C@H](O)[C@H]3O)c(O)c2)oc2cc(O)cc(O)c12 [luteolin-4′-O-glucoside]
2 | – | 1500 nM | O=c1cc(-c2ccc(O)c(O)c2)oc2cc(O)cc(O)c12 [luteolin]
